Legend:
[1] = system: MC38 cells; assay: Apoptotic cell death assay (Annexin V assay), MC38; assay type: cell-based, mouse; settings: TST 5 μM, 48 hours
Experimental: MC38 cells (8.0×10^4) were seeded in 6-well plates and cultured for 24 hours. The cells were treated with TST (5 μM) for 48 hours, harvested, and analyzed via FACS-Verse using a BD FITC Annexin V Apoptosis Detection Kit I (Cat No. 556547; BD Biosciences, San Diego, CA, USA) according to the manufacturer's protocol.

[2] = biological target: T1, FOXM1 (Homo sapiens, UniProt Q08050); assay: FOXM1 protein levels and nuclear translocation (nuclear cytoplasmic fractionation, Western blot, ICC); assay type: cell-based; settings: for FOXM1 overexpression decreased by: TST-treated cells; for restoration of FOXM1 levels by overexpression of FOXM1 in treated cells: compared to mock transfection
T1 construct: FLAG; expressed in transfected cells; host or cells: H1299 and PC9 cells
T1 sequence (Q08050 1-748 isoform Q08050-2): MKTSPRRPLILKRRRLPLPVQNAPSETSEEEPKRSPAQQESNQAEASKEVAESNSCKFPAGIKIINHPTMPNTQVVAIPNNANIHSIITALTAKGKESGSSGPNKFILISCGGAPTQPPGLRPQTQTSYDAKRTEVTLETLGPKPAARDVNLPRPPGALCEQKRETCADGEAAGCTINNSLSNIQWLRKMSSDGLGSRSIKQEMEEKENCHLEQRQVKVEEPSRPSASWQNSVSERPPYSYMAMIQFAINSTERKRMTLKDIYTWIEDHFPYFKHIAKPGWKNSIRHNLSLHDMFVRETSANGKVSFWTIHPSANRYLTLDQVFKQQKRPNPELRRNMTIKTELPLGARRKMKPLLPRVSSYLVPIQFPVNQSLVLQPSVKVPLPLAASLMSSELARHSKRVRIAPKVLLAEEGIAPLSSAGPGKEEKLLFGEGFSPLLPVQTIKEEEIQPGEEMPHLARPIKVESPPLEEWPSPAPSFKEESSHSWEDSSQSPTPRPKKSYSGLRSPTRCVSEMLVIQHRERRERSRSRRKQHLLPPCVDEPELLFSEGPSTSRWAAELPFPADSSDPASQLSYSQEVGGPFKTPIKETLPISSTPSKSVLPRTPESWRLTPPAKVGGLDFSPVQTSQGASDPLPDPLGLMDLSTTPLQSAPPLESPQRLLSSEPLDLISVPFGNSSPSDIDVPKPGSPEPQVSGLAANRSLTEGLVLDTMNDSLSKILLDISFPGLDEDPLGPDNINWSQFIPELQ
Experimental: To confirm protein subcellular localization, lysis of H1299 and PC9 cell pellets was performed in Buffer A (10 mM HEPES, 10 mM KCl, 1.5 mM MgCl2, 0.5 mM dithiothreitol (DTT), and 0.05% IGEPAL CA-630 (pH 7.9)) for 10 minutes. The Buffer A lysate was centrifuged at 1,000×g for 10 minutes at 4° C. to collect the nuclear fraction. After removal of the cytosolic fraction, buffer B containing 5 mM HEPES, 0.2 mM EDTA, 1.5 mM MgCl2, 0.5 mM DTT, and 26% glycerol (v/v) (pH 7.9) was added to the nuclear fraction and lysed on ice for 30 minutes.
Cells were lysed in RIPA buffer supplemented with complete mini protease inhibitor cocktail (#04693124001; Roche, Basel, Switzerland) and kept on ice for 30 minutes. Equal amounts of protein were evenly loaded and analyzed by sodium dodecyl sulfate-polyacrylamide gel electrophoresis (SDS-PAGE), and transferred to polyvinylidene difluoride (PVDF) membranes (#IPVH 00010; Millipore, Billerica, MA, USA) at 100 V for 1 hour. Primary antibodies (Santa Cruz Biotechnology, Texas, USA) specific for FOXM1 (#sc-271746), cyclin E1 (#sc-481), α-tubulin (#sc-8035), and β-actin (#sc-47778); PD-L1 (#13684S), cyclin D1 (#2978S), cyclin B1 (#4138S), c-MYC (#5605S), and poly(ADP-ribose) polymerase (PARP, #9542S; Cell Signaling Technology, Beverly, MA, USA) were used to probe proteins of interest. A horseradish-peroxidase-conjugated secondary antibodies specific to the primary antibody was used to detect proteins using pico-enhanced chemiluminescence substrate (#34577; Thermo Fisher Scientific).
Cells were fixed in 4% paraformaldehyde (#30525-89-4; FUJIFILM Wako Chemical, Wako, Japan) for 15 minutes and blocked with 1% bovine serum albumin (BSA) in phosphate-buffered saline-0.01% Tween-20 (PBS-T) to reduce nonspecific antibody binding. Cells were then incubated overnight with an anti-PD-L1 antibody (#14598382; eBioscience, San Diego, CA, USA) diluted 1:200 and an anti-FOXM1 antibody (#sc-271746; Santa Cruz Biotechnology) diluted 1:50, followed by incubation with an Alexa Fluor 488-labeled secondary antibody (#A11029; Thermo Fisher Scientific) for 1 hour. Nuclei were stained with Hoechst 33342. After incubation, cells were washed with PBS and mounted on glass slides using Prolong Glass Antifade mounting medium (#P36982; Thermo Fisher Scientific). Confocal microscopy was performed using a Zeiss 730 Meta microscope (Carl Zeiss, Oberkochen, Germany) and analyzed using Axiovision software (Carl Zeiss).

[3] = system: CD274 promoter; assay: Dual-luciferase assay with CD274 promoter-luciferase construct; assay type: cell-based, human; settings: TST in the presence of IFNγ
From the text: The pGL3 plasmid containing a 2 kb promoter of CD274 (#107003; Addgene, Watertown, MA, USA) was kindly provided by Julian Downward lab (Coelho M A, de Carne Trecesson S, Rana S, Zecchin D, Moore C, Molina-Arcas M, East P, Spencer-Dene B, Nye E, Barnouin K, Snijders A P, Lai W S, Blackshear P J, Downward J, Immunity 2017, 47, 1083.). H1299 and PC9 cells were co-transfected with a pGL3 2 kb promoter. Cells containing CD274 or control pGL3-basic plasmid and pGL4.70 hRluc Renilla luciferase vector (Promega, Madison, WI, USA) were transfected with siFOXM1 or treated with TST in the presence of interferon-gamma (IFNγ). Cells were harvested 48 hours after transfection, and a dual luciferase assay was performed to the according manufacturer's protocol (#E1910; Promega). At least four independent biological replicates were examined to obtain reliable results.

Which “apoptotic cell death (flow cytometry)” value [1] does the source give for thiostrepton [TST] here?
Its value is “significantly increased apoptotic cell death”.

And the “FOXM1 overexpression decreased by” value ([2]; H1299)?
The value was 63.7%.

And the “restoration of FOXM1 levels by overexpression of FOXM1 in treated cells” value ([2]; H1299)?
The value was 84.33%.

What about the “protein levels and nuclear translocation of FOXM1” value ([2]; H1299 and PC9, TST 5 μM in the presence of IFN-γ 20 ng mL-1, or siFOXM1) of the same substance?
The value was “decreased the protein levels and nuclear translocation of FOXM1”.

And the “FOXM1 overexpression decreased by” value ([2]; PC9)?
Its value is 44%.

What about the “restoration of FOXM1 levels by overexpression of FOXM1 in treated cells” value ([2]; PC9) of the same substance?
Its value is 57.56%.

And the “decrease in relative luciferase activity (CD274 promoter activity)” value ([3]; H1299)?
The value was 53%.

What about the “decrease in relative luciferase activity (CD274 promoter activity)” value ([3]; PC9) of the same substance?
The value was 66%.
